From paper PMC9763021, “Comprehensive Assessment of Biomolecular Interactions of Morpholine-Based Mixed Ligand Cu(II) and Zn(II) Complexes of 2,2′-Bipyridine as Potential Anticancer and SARS-CoV-2 Agents: A Synergistic Experimental and Structure-Based Virtual Screening” (Bioinorganic Chemistry and Applications, 2022)

Tests used:
[1] = tested on: A549 human lung cancer cell line; experiment: MTT cell viability assay, A549; format: cell-based; conditions: 72 hours exposure
Procedure: (§1) All substances towards the A549, HepG2, MCF-7, and NHDF cell lines were evaluated by using the MTT approach. The collected data were utilized to compute the IC50 value and contrast it with the gold standard cisplatin anticancer medication.
(§2) Cellular viability or metabolic properties can be measured using the MTT assay, which is a powerful and credible method for anticancer properties. The anticancer efficacy of all test compounds was investigated by the MTT assay against A549, HepG2, MCF-7, and NHDF cell lines. As per the colorimetric approach, the IC50 findings of all test substances were evaluated as the % of cell viability/growth inhibition. […] Nevertheless, complex (1a) has the highest cytotoxic potential among others. The acquired findings were in the subsequent sequence as follows: (cisplatin) > (1a) > (2a) > (HL) (Figure 16 and Table 10). The cytotoxic effectiveness is dependent upon the DNA-binding modalities, the structure-activity relationship, as well as drug concentrations and incubation period exposure. […] As per Tweedy's chelation theory, charge equilibration happens as a result of coordination between the ligands and metal ions, which minimises the polarity of the metal ions and causes the capability of the test complexes to pass via the cell membrane lipid layer. Thus, it put off the synthesis of cell wall/protein/nucleic acids. Additionally, the results of DNA-binding tests using these complexes, including gel electrophoresis, UV-visible spectral titration, hydrodynamic, emission, and CV findings, were in good agreement with the findings of cytotoxicity. The expressions (46) and (47) were supported to measure the % of growth inhibition and cell viability. […]
(§3) A549, HepG2 MCF-7, and NHDF are represented as human lung cancer cell line, liver cancer cell line, breast cancer cell line, and normal human dermal fibroblasts cell line.(45) % Cytotoxiciy=1− Mean absorbance of Sample at 595 nm/Mean absorbance of Controlat 595 nm ×100, (46) Cellviability%=100−Cytotoxiciy%.

[2] = tested on: HepG2 liver cancer cell line; experiment: MTT cell viability assay, HepG2; format: cell-based, human; conditions: 72 hours exposure
Procedure: as §1, §2, §3

[3] = tested on: MCF-7 breast cancer cell line; experiment: MTT cell viability assay, MCF-7; format: cell-based, human; conditions: 72 hours exposure
Procedure: as §1, §2, §3

[4] = tested on: NHDF normal human dermal fibroblasts cell line; experiment: MTT cell viability assay, NHDF; format: cell-based; conditions: 72 hours exposure, normal cells
Procedure: as §1, §2, §3

Escherichia coli = experiment: Agar disc diffusion, strain A; format: cell-based; set-up: (inhibition %): concentration or dose not given beside the values
Procedure: (§4) In-vitro antimicrobial properties were evaluated for all samples by the agar disc diffusion method towards different fungal and bacterial strains. Additionally, the reported inhibition zone values were comparatively analyzed with the standard antifungal drugs ketoconazole and amphotericin B as well as the standard antibiotic medications streptomycin and amikacin.
(§5) The current research has a curious focus on the in vitro antimicrobial properties of biological systems because these studies are crucial for developing effective antibacterial and antifungal medications. […] It can also be spelled out based on the chelation theory proposed by Overtone and Tweedy. Chelation theory points out that the partial exchanging of the positive charge of the metal center with donor moieties, and overlap of the ligand orbitals will reduce the greater degree of the metal ion's polarity, which ultimately rises the delocalization of π and d electrons over the full chelated ring system. By raising the size of the metal ion due to the retarding of polarization, chelation may also enhance the complexes' lipophilic characteristics, which further stimulate the lipid membrane permeability and break down the bacteria' enzymes responsible for cell wall formation, therefore slowing down the regular cell processes. By preventing the production of cell walls/proteins/DNA, including by obstructing folate metabolism and the cytoplasmic membrane, antimicrobial drugs frequently either fully eliminate microbes or only prevent their cell growth. Additionally, the samples' mode of action may be employed in disrupting the cell's respiration process by forming an H-bond during the morpholine-fused iminic group coordinated with the active metal center of its components, inhibiting proliferation of the cell. […] The difference in the antimicrobial efficacy of some of the compounds towards various microorganisms influences on the impermeability of the cells of the germs or the diversity of ribosomes of the microbes. The % of the inhibition of all substances is estimated from (45) (Table 9).
(§6) (A, B, C, D, and E are represented as gram negative bacteria species Escherichia coli, Salmonella enteric serovar typhi, Salmonella enteric serovar typhi, Pseudomonas aeruginosa, and Shigella flexneri, respectively. F & G are denoted as gram positive bacteria species Staphylococcus aureus and Bacillus cereus. H, I, and J are represented as fungal strains Aspergillus niger, Candida albicans, and Mucor indicus. Standard drugs for bacterial strains: Amikacin & Streptomycin Standard drugs for fungal strains: Ketoconazole and Amphotericin B. [Control (DMSO) = 6 mm].(44) Inhibition %=T–C/T×100, where T and C are represented as the diameter of microbial growth of the sample plates and the control plate (6 mm), respectively. Error limits ±2.5–5.0% (P ≤ 0.05).

[5] = tested on: Salmonella enteric serovar typhi; experiment: Agar disc diffusion, strain B; format: cell-based
Procedure: as §4, §5, §6

[6] = tested on: Salmonella enteric serovar typhi; experiment: Agar disc diffusion, strain C; format: cell-based
Procedure: as §4, §5, §6

Pseudomonas aeruginosa = experiment: Agar disc diffusion, strain D; format: cell-based; set-up: (inhibition %): concentration or dose not given beside the values
Procedure: as §4, §5, §6

Shigella flexneri = experiment: Agar disc diffusion, strain E; format: cell-based; set-up: (inhibition %): concentration or dose not given beside the values
Procedure: as §4, §5, §6

Staphylococcus aureus = experiment: Agar disc diffusion, strain F; format: cell-based; set-up: (inhibition %): concentration or dose not given beside the values
Procedure: as §4, §5, §6

Bacillus cereus = experiment: Agar disc diffusion, strain G; format: cell-based; set-up: (inhibition %): concentration or dose not given beside the values
Procedure: as §4, §5, §6

Q: Which results are given for `N.N.[Cl][Pt][Cl]` [Cisplatin, reference compound]?
A: IC50 [1]: 31.9 ± 1.6 µM; IC50 [2]: 22.9 ± 1.1 µM; IC50 [3]: 20.2 ± 1 µM; IC50 [4]: 26.9 ± 1.3 µM

Q: `[H]/N=C(/N)N[C@H]1[C@H](O)[C@@H](O)[C@H](O[C@@H]2O[C@@H](C)[C@](O)(C=O)[C@H]2O[C@@H]2O[C@@H](CO)[C@H](O)[C@@H](O)[C@@H]2NC)[C@@H](N/C(N)=N\[H])[C@@H]1O` [Streptomycin, reference compound] was tested. Which “(inhibition %)” value (Escherichia coli; (T–C)/T×100) did it give?
A: 75%

Q: And the “diameter of the clear zone inhibition” value (Escherichia coli; control (DMSO) = 6 mm)?
A: 24 mm

Q: And the “(inhibition %)” value [5]?
A: 77%

Q: And the “diameter of the clear zone inhibition” value ([5]; control = 6 mm)?
A: 26 mm

Q: And the “(inhibition %)” value [6]?
A: 75%

Q: And the “diameter of the clear zone inhibition” value ([6]; control = 6 mm)?
A: 24 mm

Q: And the “(inhibition %)” value (Pseudomonas aeruginosa)?
A: 71%

Q: What about the “diameter of the clear zone inhibition” value (Pseudomonas aeruginosa; control = 6 mm) of the same molecule?
A: 21 mm

Q: What about the “(inhibition %)” value (Shigella flexneri) of the same molecule?
A: 76%

Q: What about the “diameter of the clear zone inhibition” value (Shigella flexneri; control = 6 mm) of the same molecule?
A: 25 mm

Q: What about the “(inhibition %)” value (Staphylococcus aureus) of the same molecule?
A: 71%

Q: What about the “diameter of the clear zone inhibition” value (Staphylococcus aureus; control = 6 mm) of the same molecule?
A: 21 mm

Q: What about the “(inhibition %)” value (Bacillus cereus) of the same molecule?
A: 71%

Q: And the “diameter of the clear zone inhibition” value (Bacillus cereus; control = 6 mm)?
A: 21 mm
